Experimental data reported in article PMC3626541, “A first in human, safety, pharmacokinetics, and clinical activity phase I study of once weekly administration of the Hsp90 inhibitor ganetespib (STA-9090) in patients with solid malignancies” (BMC Cancer, 2013).

System: patients with advanced solid tumors
Assay: Safety: adverse events (NCI CTCAE v3.0), ECG
Type: in vivo, human
Protocol: Patients’ demographics and medical history were recorded at baseline. Physical examination and PS were assessed at baseline and on Day 1 of each cycle. Adverse events (AEs), vital signs, hematology and chemistry values, and creatinine clearance were assessed at baseline and weekly during treatment. Toxicity was graded using National Cancer Institute Common Terminology Criteria for Adverse Events (NCI CTCAE), version 3.0. An electrocardiogram (ECG) was performed at baseline, before and after treatment on Days 1 and 15 of Cycles 1 and 2, and on Day 15 of even-numbered cycles thereafter. CT scans were done at baseline and every 8 weeks thereafter. Tumor response was assessed using Response Evaluation Criteria in Solid Tumors (RECIST, v1.0), with confirmation of responses performed at least 4 weeks later.

[1] = Cycle 1 Day 1 post-dose, patients with QTc prolongation
[2] = repeat ECG later on the same day

CC(C)c1cc(-c2n[nH]c(=O)n2-c2ccc3c(ccn3C)c2)c(O)cc1O [Ganetespib, 5-[2,4-dihydroxy-5-(1 methyl-ethyl)phenyl]-2,4 dihydro-4-(1-methyl-1H indol-5 yl)-3H-1,2,4 triazole-3-one]
Constipation, AE of any grade, Number (%) of patients (150-216 mg/m^2, n = 22): 3 (13.6) n (%)
Decreased appetite, AE of any grade, Number (%) of patients (150-216 mg/m^2, n = 22): 8 (36.4) n (%)
Dehydration, AE of any grade, Number (%) of patients (150-216 mg/m^2, n = 22): 3 (13.6) n (%)
Dehydration, CTCAE Grade 3 and 4 AE, Number (%) of patients (150-216 mg/m^2, n = 22): 1 (4.5) n (%)
Dehydration, serious adverse events, Number (%) of patients (150-216 mg/m^2, n = 22): 1 (4.5) n (%)
Diarrhea, AE of any grade, Number (%) of patients (150-216 mg/m^2, n = 22): 21 (95.5) n (%)
Diarrhea, CTCAE Grade 3 and 4 AE, Number (%) of patients (150-216 mg/m^2, n = 22): 2 (9.1) n (%)
Dizziness, AE of any grade, Number (%) of patients (150-216 mg/m^2, n = 22): 3 (13.6) n (%)
Dry mouth, AE of any grade, Number (%) of patients (150-216 mg/m^2, n = 22): 3 (13.6) n (%)
Dyspnea, AE of any grade, Number (%) of patients (150-216 mg/m^2, n = 22): 4 (18.2) n (%)
Extremity pain, AE of any grade, Number (%) of patients (150-216 mg/m^2, n = 22): 1 (4.5) n (%)
Fatigue, AE of any grade, Number (%) of patients (150-216 mg/m^2, n = 22): 13 (59.1) n (%)
Fatigue, CTCAE Grade 3 and 4 AE, Number (%) of patients (150-216 mg/m^2, n = 22): 4 (18.2) n (%)
Headache, AE of any grade, Number (%) of patients (150-216 mg/m^2, n = 22): 6 (27.3) n (%)
Hyperbilirubinemia, CTCAE Grade 3 and 4 AE, Number (%) of patients (150-216 mg/m^2, n = 22): 2 (9.1) n (%)
Hypokalemia, AE of any grade, Number (%) of patients (150-216 mg/m^2, n = 22): 4 (18.2) n (%)
Hypokalemia, CTCAE Grade 3 and 4 AE, Number (%) of patients (150-216 mg/m^2, n = 22): 2 (9.1) n (%)
Hyponatremia, CTCAE Grade 3 and 4 AE, Number (%) of patients (150-216 mg/m^2, n = 22): 0 n (%)
Hypophosphatemia, AE of any grade, Number (%) of patients (150-216 mg/m^2, n = 22): 2 (9.1) n (%)
Hypophosphatemia, CTCAE Grade 3 and 4 AE, Number (%) of patients (150-216 mg/m^2, n = 22): 2 (9.1) n (%)
Insomnia, AE of any grade, Number (%) of patients (150-216 mg/m^2, n = 22): 6 (27.3) n (%)
Musculoskeletal chest pain, AE of any grade, Number (%) of patients (150-216 mg/m^2, n = 22): 4 (18.2) n (%)
Nausea, AE of any grade, Number (%) of patients (150-216 mg/m^2, n = 22): 7 (31.8) n (%)
Peripheral edema, AE of any grade, Number (%) of patients (150-216 mg/m^2, n = 22): 5 (22.7) n (%)
Pneumonia, serious adverse events, Number (%) of patients (150-216 mg/m^2, n = 22): 1 (4.5) n (%)
Rash, AE of any grade, Number (%) of patients (150-216 mg/m^2, n = 22): 1 (4.5) n (%)
Serum amylase elevated, CTCAE Grade 3 and 4 AE, Number (%) of patients (150-216 mg/m^2, n = 22): 1 (4.5) n (%)
Spinal cord compression, CTCAE Grade 3 and 4 AE, Number (%) of patients (150-216 mg/m^2, n = 22): 0 n (%)
Urinary tract infection, AE of any grade, Number (%) of patients (150-216 mg/m^2, n = 22): 3 (13.6) n (%)
Vomiting, AE of any grade, Number (%) of patients (150-216 mg/m^2, n = 22): 3 (13.6) n (%)
Weight decreased, AE of any grade, Number (%) of patients (150-216 mg/m^2, n = 22): 5 (22.7) n (%)
ALT elevated, AE of any grade, Number (%) of patients (150-216 mg/m^2, n = 22, first of two ALT elevated lines): 5 (22.7) n (%)
ALT elevated, AE of any grade, Number (%) of patients (150-216 mg/m^2, n = 22, second of two ALT elevated lines): 3 (13.6) n (%)
Incidence of diarrhea (150–216 mg/m^2 dose levels): 95.5%
Incidence of fatigue (150–216 mg/m^2 dose levels): 59.1%
ALT elevation, CTCAE Grade 3 and 4 AE, Number (%) of patients (All patients, n = 53): 3 (5.7) n (%)
AST elevated, AE of any grade, Number (%) of patients (All patients, n = 53): 9 (17) n (%)
Abdominal distension, AE of any grade, Number (%) of patients (All patients, n = 53): 6 (11.3) n (%)
Abdominal pain, AE of any grade, Number (%) of patients (All patients, n = 53): 20 (37.7) n (%)
Abdominal pain, serious adverse events, Number (%) of patients (All patients, n = 53): 2 (3.8) n (%)
Anemia, AE of any grade, Number (%) of patients (All patients, n = 53): 16 (30.2) n (%)
Any event, AE of any grade, Number (%) of patients (All patients, n = 53): 53 (100) n (%)
Any event, CTCAE Grade 3 and 4 AE, Number (%) of patients (All patients, n = 53): 36 (67.9) n (%)
Any event, serious adverse events, Number (%) of patients (All patients, n = 53): 15 (28.3) n (%)
Arthralgia, CTCAE Grade 3 and 4 AE, Number (%) of patients (All patients, n = 53): 2 (3.8) n (%)
Asthenia, AE of any grade, Number (%) of patients (All patients, n = 53): 8 (15.1) n (%)
Asthenia, CTCAE Grade 3 and 4 AE, Number (%) of patients (All patients, n = 53): 4 (7.5) n (%)
Asthenia, serious adverse events, Number (%) of patients (All patients, n = 53): 2 (3.8) n (%)
Back pain, AE of any grade, Number (%) of patients (All patients, n = 53): 8 (15.1) n (%)
Constipation, AE of any grade, Number (%) of patients (All patients, n = 53): 9 (17) n (%)
Decreased appetite, AE of any grade, Number (%) of patients (All patients, n = 53): 11 (20.8) n (%)
Dehydration, AE of any grade, Number (%) of patients (All patients, n = 53): 7 (13.2) n (%)
Dehydration, CTCAE Grade 3 and 4 AE, Number (%) of patients (All patients, n = 53): 3 (5.7) n (%)
Dehydration, serious adverse events, Number (%) of patients (All patients, n = 53): 2 (3.8) n (%)
Diarrhea, AE of any grade, Number (%) of patients (All patients, n = 53): 47 (88.7) n (%)
Diarrhea, CTCAE Grade 3 and 4 AE, Number (%) of patients (All patients, n = 53): 4 (7.5) n (%)
Dizziness, AE of any grade, Number (%) of patients (All patients, n = 53): 6 (11.3) n (%)
Dry mouth, AE of any grade, Number (%) of patients (All patients, n = 53): 6 (11.3) n (%)
Dyspnea, AE of any grade, Number (%) of patients (All patients, n = 53): 9 (17) n (%)
Extremity pain, AE of any grade, Number (%) of patients (All patients, n = 53): 6 (11.3) n (%)
Fatigue, AE of any grade, Number (%) of patients (All patients, n = 53): 30 (56.6) n (%)
Fatigue, CTCAE Grade 3 and 4 AE, Number (%) of patients (All patients, n = 53): 6 (11.3) n (%)
Headache, AE of any grade, Number (%) of patients (All patients, n = 53): 9 (17) n (%)
Hyperbilirubinemia, CTCAE Grade 3 and 4 AE, Number (%) of patients (All patients, n = 53): 3 (5.7) n (%)
Hypokalemia, AE of any grade, Number (%) of patients (All patients, n = 53): 7 (13.2) n (%)
Hypokalemia, CTCAE Grade 3 and 4 AE, Number (%) of patients (All patients, n = 53): 2 (3.8) n (%)
Hyponatremia, CTCAE Grade 3 and 4 AE, Number (%) of patients (All patients, n = 53): 3 (5.7) n (%)
Hypophosphatemia, AE of any grade, Number (%) of patients (All patients, n = 53): 7 (13.2) n (%)
Hypophosphatemia, CTCAE Grade 3 and 4 AE, Number (%) of patients (All patients, n = 53): 4 (7.5) n (%)
Insomnia, AE of any grade, Number (%) of patients (All patients, n = 53): 10 (18.9) n (%)
Musculoskeletal chest pain, AE of any grade, Number (%) of patients (All patients, n = 53): 6 (11.3) n (%)
Nausea, AE of any grade, Number (%) of patients (All patients, n = 53): 18 (34) n (%)
Peripheral edema, AE of any grade, Number (%) of patients (All patients, n = 53): 9 (17) n (%)
Pneumonia, serious adverse events, Number (%) of patients (All patients, n = 53): 2 (3.8) n (%)
Rash, AE of any grade, Number (%) of patients (All patients, n = 53): 6 (11.3) n (%)
Serum amylase elevated, CTCAE Grade 3 and 4 AE, Number (%) of patients (All patients, n = 53): 2 (3.8) n (%)
Spinal cord compression, CTCAE Grade 3 and 4 AE, Number (%) of patients (All patients, n = 53): 2 (3.8) n (%)
Urinary tract infection, AE of any grade, Number (%) of patients (All patients, n = 53): 8 (15.1) n (%)
Vomiting, AE of any grade, Number (%) of patients (All patients, n = 53): 10 (18.9) n (%)
Weight decreased, AE of any grade, Number (%) of patients (All patients, n = 53): 7 (13.2) n (%)
ALT elevated, AE of any grade, Number (%) of patients (All patients, n = 53, first of two ALT elevated lines): 10 (18.9) n (%)
ALT elevated, AE of any grade, Number (%) of patients (All patients, n = 53, second of two ALT elevated lines): 6 (11.3) n (%)
QT [1]: 438 ms
QTc (QT with Bazett correction) [1]: 457 ms
Patients with dose reduction (all 53 patients): 7.5%
Patients with dose reduction and delay (all 53 patients): 7.5%
Patients with missed dose (all 53 patients): 30.2%
Patients with dose modification (all 53 patients, mainly due to adverse events): 45.3%
Patients who discontinued treatment due to drug-unrelated adverse events (all in cohort 1): 5.7%
Patients with Grade 3 or 4 AE (all patients): 67.9%
Patients with Grade 3 or 4 fatigue (all patients): 11.3%
Patients with diarrhea, Grade 1 and 2 (all patients): 88.7%
Patients with fatigue, Grade 1 and 2 (all patients): 56.6%
Patients with onset of diarrhea between days 1–7 (all patients): 75.5%
Patients with transient ALP elevation (all patients): 18.9%
Patients with transient ALT elevation (all patients): 11.3%
Patients with transient AST elevation (all patients): 17%
Patients with treatment-related anemia (all patients): 5.7%
Patients with treatment-related neutropenia (all patients): 5.7%
Patients with visual changes (all patients, mild and transient): 15%
Patients with abdominal pain (all patients, mild to moderate): 37.7%
Patients with nausea (all patients, mild to moderate): 34%
Patients with vomiting (all patients, mild to moderate): 18.9%
Patients with on-treatment SAEs (all patients, none considered treatment-related): 28.3%
Patients with Grade 2 or 3 hyberbilirubinemia (all patients, not considered study drug-related): 7.5%
Patients with Grade 1 or 2 blurred vision (doses of 35 mg/m^2, 114 mg/m^2 and 150 mg/m^2): Three patients
Patients with QTc prolongation (higher dose levels, Cycle 1 Day 1 post-dose): Three patients
Patients with treatment-related visual impairment (mild and transient): Two patients
Deaths during the study (none deemed treatment-related): Three deaths
Patients with QTc changes (not symptomatic, not considered clinically meaningful): 91%
Patients with Grade 1 transient visual impairment (one each at 216 and 259 mg/m^2, possibly related to study drug): 2 patients
QT [2]: 414 ms
QTc [2]: 433 ms
